Assay [1] concerns Pseudomonas aeruginosa. As to the kind of experiment: Antibacterial activity against Pseudomonas aeruginosa PAO1 assessed as inhibition of bacterial growth incubated for 24 hrs by serial dilution method. It is filed as functional.
Assay [2] relates to Pseudomonas aeruginosa. As to the kind of experiment: Antibiofilm activity against Pseudomonas aeruginosa PAO1 assessed as inhibition of biofilm formation incubated for 24 hrs by crystal violet staining based analysis. To be noted: PAO1, 24 h. It is filed as functional, organism-based.
Assay [3] has as its system Pseudomonas aeruginosa. As to the kind of experiment: Antibiofilm activity against Pseudomonas aeruginosa PA14 assessed as inhibition of biofilm formation incubated for 24 hrs by crystal violet staining based analysis. Type of assay: functional, organism-based. To be noted: PA14, 24 h.
Assay [4] relates to Pseudomonas aeruginosa. As to the kind of experiment: Antibacterial activity against Pseudomonas aeruginosa PAO1 infected in BALB/c mouse wound infection model assessed as bacterial survival rate in wound at 0.5 mg/mL administered to wound once a day for 3 days in dropwise manner. To be noted: PAO1, 72 h, time 3 day. It is filed as functional.
Assay [5] relates to Pseudomonas aeruginosa. As to the kind of experiment: Antibacterial activity against Pseudomonas aeruginosa PAO1 infected in BALB/c mouse wound infection model assessed as reduction in wound area at 0.5 mg/mL administered to wound once a day for 3 days and measured after 9 days in dropwise manner. Type of assay: functional. Details: scale not given: the % may be the effect or the level left. To be noted: time 12 day.

Assay [6] has as its system Pseudomonas aeruginosa. As to the kind of experiment: Antibacterial activity against Pseudomonas aeruginosa PAO1 infected in BALB/c mouse wound infection model assessed as reduction in wound area at 0.0025 mg/mL administered to wound once a day for 3 days and measured after 9 days in dropwise manner. It is filed as functional. Details: scale not given: the % may be the effect or the level left. To be noted: time 12 day.

Assay [7] concerns Pseudomonas aeruginosa. As to the kind of experiment: Antibiofilm activity against Pseudomonas aeruginosa PAO1 assessed as reduction in pFe(III) content incubated for 24 hrs. Type of assay: functional.

The MIC is the lowest concentration that inhibits growth of the organism. The IC50 is the concentration at which inhibition is half-maximal. `O=C(CCCCNC(=O)CNc1nc2ccccc2s1)NO`: the MIC in assay [1] is over 256 µM. The IC50 in assay [2] worked out at 3.33 µM; in assay [3] it was 7.02 µM.
The matching figures for `O=C(CCCCNC(=O)CNc1nccs1)NO`: over 256 µM, 14.8 µM and 30.9 µM.
The corresponding values for `O=C(Cc1ccc(CNC(=O)CNc2nc3cc(F)ccc3s2)cc1)NO` are over 256 µM, 3.17 µM and 7.9 µM.
Regarding `COc1cccc(NCC(=O)NCCCCC(=O)NO)c1`, in assay [1], the MIC is over 256 µM. Also, the figures for the IC50 in assay [2] and in assay [3] were over 80 µM and over 100 µM, respectively.
The matching figures for `O=C(CCCCCCNC(=O)CNc1nc2ccccc2s1)NO`: over 256 µM, 8.77 µM and 14 µM.
The corresponding values for `O=C(Cn1cc(CNc2nc3ccc(Cl)cc3s2)nn1)NO` are over 256 µM, 10.2 µM and 17.5 µM.
The corresponding values for `CC[C@H]1OC(=O)[C@H](C)[C@@H](O[C@H]2C[C@@](C)(OC)[C@@H](O)[C@H](C)O2)[C@H](C)[C@@H](O[C@@H]2O[C@H](C)C[C@H](N(C)C)[C@H]2O)[C@](C)(O)C[C@@H](C)CN(C)[C@H](C)[C@@H](O)[C@]1(C)O` [AZITHROMYCIN] are over 256 µM, 11 µM and 38.5 µM.
In the case of `O=C(CCCCCNC(=O)CNc1nc2ccc(Cl)cc2s1)NO`, in assay [1], the MIC is over 256 µM. The results for the IC50 in assay [2] and in assay [3] were 20.9 µM and 36.6 µM, respectively.
For `NC[C@H]1O[C@H](O[C@H]2[C@H](O)[C@@H](O[C@H]3O[C@H](CO)[C@@H](O)[C@H](N)[C@H]3O)[C@H](N)C[C@@H]2N)[C@H](N)C[C@@H]1O` [TOBRAMYCIN], the survival at 500 µg/mL in assay [4] stood at 0.22%. Also, the Activity in assay [5] amounted to 36%; in assay [6], 41%.
In the case of `O=C(CCCCCCNC(=O)CNc1nc2ccc(Cl)cc2s1)NO`, in assay [1], the MIC was over 256 µM. The results for the IC50 in assay [2] and in assay [3] were 13.6 µM and 24.4 µM, respectively.
The corresponding values for `COc1ccccc1NCC(=O)NCCCCC(=O)NO` are over 256 µM, 26.9 µM and 54.5 µM.
The corresponding values for `Cc1ccc2nc(NCC(=O)NCc3ccc(CC(=O)NO)cc3)sc2c1` are over 256 µM, 2.03 µM and 5.6 µM.
On to `COc1ccc2nc(NCC(=O)NCCCCCC(=O)NO)sc2c1`, for which the MIC in assay [1] is over 256 µM. In addition, the IC50 in assay [2] turned out to be 1.6 µM; in assay [3], 3.85 µM.
The corresponding values for `O=C(CCCCCNC(=O)CNc1nc2ccc(C(F)(F)F)cc2s1)NO` are over 256 µM, 3.67 µM and 11.7 µM.
The matching figures for `COc1cccc2sc(NCC(=O)NCc3ccc(CC(=O)NO)cc3)nc12`: over 256 µM, 2.85 µM and 7.78 µM.
Regarding `O=C(CCCCCCNC(=O)CNc1nc2ccc(C(F)(F)F)cc2s1)NO`, the MIC in assay [1] is over 256 µM. Moreover, the results for the IC50 in assay [2] and in assay [3] were 3.25 µM and 6.65 µM, respectively.
The matching figures for `O=C(Cn1cc(CNc2nc3ccc(C(F)(F)F)cc3s2)nn1)NO`: over 256 µM, 2.03 µM and 5.42 µM.
The matching figures for `O=C(Cc1ccc(CNC(=O)CNc2nc3cc(Br)ccc3s2)cc1)NO`: over 256 µM, 2.48 µM and 6.3 µM.
The corresponding values for `COc1ccc2nc(NCc3cn(CC(=O)NO)nn3)sc2c1` are over 256 µM, 1.94 µM and 5.09 µM.
Turning to `Cc1ccc2nc(NCC(=O)Nc3ccc(CC(=O)NO)cc3)sc2c1`, the MIC in assay [1] was over 256 µM. The IC50 came out at 1.64 µM in assay [2] and 4.33 µM in assay [3].
The corresponding values for `O=C(CCCCNC(=O)CNc1nc2cc(F)ccc2s1)NO` are over 256 µM, 14.7 µM and 28.9 µM.
For `O=C(CCCCNC(=O)CNc1ccccc1)NO`, the MIC in assay [1] is over 256 µM. Besides, the IC50 in assay [2] was over 80 µM; in assay [3], over 100 µM.
The matching figures for `COc1ccc2nc(NCC(=O)NCCCCN)sc2c1`: over 256 µM, over 80 µM and over 100 µM.
The matching figures for `CCOc1ccc2nc(NCC(=O)NCc3ccc(CC(=O)NO)cc3)sc2c1`: over 256 µM, 4 µM and 13.4 µM.
Consider `COc1ccc(NCC(=O)NCCCCC(=O)NO)cc1`, for which, in assay [1], the MIC was over 256 µM. The values for the IC50 in assay [2] and in assay [3] were over 80 µM and over 100 µM, respectively.
With `O=C(CCCCCCNC(=O)c1nc2ccccc2s1)NO`, the MIC in assay [1] was over 256 µM. In addition, the half-inhibitory concentration (IC50) came out at 14.3 µM in assay [2] and 36.4 µM in assay [3].
The corresponding values for `COc1cccc2sc(NCC(=O)Nc3ccc(CC(=O)NO)cc3)nc12` are over 256 µM, 1.42 µM and 3.92 µM.
Turning to `O=C(CCCCNC(=O)CNc1nc2ccc(Br)cc2s1)NO`, in assay [1], the MIC is over 256 µM. The IC50 worked out at 1.49 µM in assay [2] and 4.49 µM in assay [3].
The corresponding values for `O=C(Cn1cc(CNC(=O)c2nc3ccccc3s2)nn1)NO` are over 256 µM, 12.8 µM and 24.4 µM.
The matching figures for `O=C(Cc1ccc(CNC(=O)CNc2nc3ccc(Br)cc3s2)cc1)NO`: over 256 µM, 1.17 µM and 2.93 µM.
The corresponding values for `O=C(CCCCNC(=O)CNc1nc2cc(Cl)ccc2s1)NO` are over 256 µM, 7.02 µM and 15 µM.
For the compound `COc1ccc2nc(NCC(=O)NC3CCC(C(=O)NO)CC3)sc2c1` (centres undefined), the MIC in assay [1] is over 256 µM. For the same compound, the IC50 in assay [2] stood at 6.64 µM; in assay [3], 14.7 µM.
The matching figures for `O=C(CCCCNC(=O)CNc1nc2ccc(C(F)(F)F)cc2s1)NO`: over 256 µM, 1.72 µM and 4.26 µM.
With `O=C(CCCCNC(=O)CNc1nc2ccc(F)cc2s1)NO`, the MIC in assay [1] is over 256 µM. Further, the figures for the concentration for half-maximal inhibition (IC50) in assay [2] and in assay [3] were 2.01 µM and 5.26 µM, respectively.
As to `O=C(CCCCCNC(=O)c1nc2ccccc2s1)NO`, the MIC in assay [1] is over 256 µM. The IC50 in assay [2] came out at 10.2 µM; in assay [3] it was 19.1 µM.
For `O=C(CCCCNC(=O)CNc1nc2ccc(Cl)cc2s1)NO`, in assay [1], the MIC was over 256 µM. Further, the IC50 in assay [2] came to 2.05 µM; in assay [3], 5.67 µM.
The corresponding values for `COC(=O)CCCCNC(=O)CNc1nc2ccc(OC)cc2s1` are over 256 µM, 14.7 µM and 18.4 µM.
The matching figures for `O=C(Cc1ccc(CNC(=O)CNc2nc3ccc(C(F)(F)F)cc3s2)cc1)NO`: over 256 µM, 3.16 µM and 7.3 µM.
Consider `COc1ccc2nc(NCC(=O)NCc3ccc(CC(=O)NO)cc3)sc2c1`, for which the MIC in assay [1] is over 256 µM. Also, the IC50 in assay [2] was determined as 6.23 µM; in assay [3], 15.6 µM.
As for `O=C(NO)c1ccc(CNC(=O)c2nc3ccccc3s2)cc1`, the MIC in assay [1] was over 256 µM. Besides, the values for the IC50 in assay [2] and in assay [3] were 3.85 µM and 11.1 µM, respectively.
As to `Cc1c(O)c(=O)ccn1C` [DEFERIPRONE], the Activity in assay [7] is reported as 20.13.
Regarding `O=C(CCCCCNC(=O)CNc1nc2ccccc2s1)NO`, in assay [1], the MIC is over 256 µM. Further, the values for the IC50 in assay [2] and in assay [3] were 1.58 µM and 4.26 µM, respectively.
The corresponding values for `COc1ccc2nc(NCC(=O)NCCCC(=O)NO)sc2c1` are over 256 µM, 5.15 µM and 15.2 µM.
Consider `O=C(CCCNC(=O)c1nc2ccccc2s1)NO`, for which the MIC in assay [1] is over 256 µM. For the same compound, the IC50 stood at 1.89 µM in assay [2] and 4.29 µM in assay [3].
For the compound `COc1cccc2sc(NCC(=O)NCCCCC(=O)NO)nc12`, in assay [1], the MIC is over 256 µM. The IC50 in assay [2] came out at 0.51 µM; in assay [3], 1.89 µM.
`COc1ccc2sc(NCC(=O)NCCCCC(=O)NO)nc2c1`: the MIC in assay [1] was over 256 µM. The IC50 in assay [2] is 1.29 µM; in assay [3] it was 3.41 µM.
The matching figures for `Cc1ccc2nc(NCC(=O)NCCCCC(=O)NO)sc2c1`: over 256 µM, 0.79 µM and 2.21 µM.

These data come from ChEMBL document CHEMBL6103650, “Hybrid Molecules of Benzothiazole and Hydroxamic Acid as Dual-Acting Biofilm Inhibitors with Antibacterial Synergistic Effect against Pseudomonas aeruginosa Infections” (J Med Chem, 2025).
